What was measured:
PPAR α = target: T1, PPAR α (Mus musculus, UniProt P23204); conditions: wild-type and PPAR α (−/−) mice; cited from earlier work
T1 construct: host or cells: wild-type mice (endogenous protein)

[1] = tested on: N-acylsphingosine amidohydrolase-like (NAAA); assay: Real-time PCR gene expression in peripheral tissues: NAAA; format: in vivo; conditions: C57bl6j mice, high fat diet, 100 mg/kg/body weight in diet, 5 weeks
Description: (§1) The expression of 45 genes was measured by real-time PCR in peripheral tissues to identify genes that were differentially expressed in response to oral administration of oleoylethanolamide (OEA) or a non-hydrolysable OEA analog (KDS 5104), which affect satiety, lipid metabolism, fat utilization, food intake, and body fat mass.
(§2) Animals, diet, and experimental design. Adult male C57bl6j mice purchased at 8 weeks of age were individually housed and maintained ad libitum on high fat diet and water for 2 weeks. Seven mice were randomly allocated in 3 groups and fed with a high fat diet (lipids represented 50% of daily energy) for 2 weeks. For one kilogram, the composition of the high fat diet was: 235 g casein, 201 g saccharose, 3.5 g L-cystine, 85 g starch, 116 g maltodextrin, 60 g cellulose, 12 g vitamins mix (AIN-93M, UPAE, Jouy-en-Josas, France), 51.5 g mineral mix (AIN-93Vx, UPAE, Jouy-en-Josas, France), and 236 g lard. Then, either OEA or KDS 5104 was added to the diet at a concentration of 100 mg/kg/body weight. The mice were kept under treatment for 5 weeks.
(§3) Sampling. At the end of the experimental period, mice were sacrificed by blood drawing (cardiac puncture) after anesthesia with isoflurane. Plasma was obtained by centrifugation (1,000 g for 10 min at 4° C.). Mesenteric, epididymal, inguinal and peritoneal adipose depots, as well as liver, stomach, small intestine mucosa, pancreas, and gastrocnemian muscle were removed and frozen into liquid nitrogen. Plasma, urine, feces, and organ samples were kept at −80° C. until analysis.
(§4) RNA extraction and gene expression. Total RNA from liver, intestine mucous membrane, adipose tissues, gastrocnemian muscle, pancreas and stomach were extracted with TRIzol reagent (Invitrogen, Carlsbad, USA) according to the manufacturer's instruction. The RNA concentration was determined on nanodrop from the absorbance at 260 nm. Retro-transcription PCRs to synthesize cDNA were performed using an Applied Biosystem Thermal Cycler 2720 and Superscript II (Invitrogen, Carlsbad, USA) according to manufacturer's protocol. Real-time quantitative PCR (RT-qPCR) were performed on cDNA obtained as described above using a high through put system (Biomek 3000, Beckman & Coulter, Fullerton, USA) and a Lightcycler 480 (Roche/Hitachi, Basel, Switzerland) with SYBR Green Master mix+kit (Eurogentec, Philadelphia, USA). Primers for the selected genes were generated using online informatics assistance from the Lightcycler manufacturer (Roche). Databases used to identify the genes were (1) the NCBI database (GenBank) and (2) the IHOP (Information Hyperlinked over Protein) database (www.ihop-net.org/UniPub/iHOP/bng/). Values were expressed as ratio of RNA levels relative to control mice (diets with 0 mg of OEA/kg/body weight) using ΔΔ(Ct) (Livak K J & Schmittgen T D, 2001, Methods 25:402-8). Gene expression of the following genes was measured (abbreviation and GenBank Accession shown in parentheses).
(§5) Statistical analysis. […] Statistical analysis of physiological parameters and gene expression data was performed by one-way ANOVA on Statview software (SAS Institute, Cary, USA). Daily food intake was analyzed using two-way ANOVA on Statview software. Statistical significance was set up at the P<0.05 level, the P<0.01 level and the P<0.001 level. For statistical analysis of the gene expression data, values were calculated relative to 18S expression for each mouse and gene.

Cholescystokinin (CCK) = assay: Real-time PCR gene expression in peripheral tissues: CCK; format: in vivo; conditions: proximal intestine; C57bl6j mice, high fat diet, 100 mg/kg/body weight in diet, 5 weeks
Description: as §1
(§6) Animals, diet, and experimental design. Adult male C57bl6j mice purchased at 8 weeks of age were individually housed and maintained ad libitum on high fat diet and water for 2 weeks. Seven mice were randomly allocated in 3 groups and fed with a high fat diet (lipids represented 50% of daily energy) for 2 weeks. […]
(§7) RNA extraction and gene expression. […] The RNA concentration was determined on nanodrop from the absorbance at 260 nm. […] Real-time quantitative PCR (RT-qPCR) were performed on cDNA obtained as described above using a high through put system (Biomek 3000, Beckman & Coulter, Fullerton, USA) and a Lightcycler 480 (Roche/Hitachi, Basel, Switzerland) with SYBR Green Master mix+kit (Eurogentec, Philadelphia, USA). […] Values were expressed as ratio of RNA levels relative to control mice (diets with 0 mg of OEA/kg/body weight) using ΔΔ(Ct) (Livak K J & Schmittgen T D, 2001, Methods 25:402-8). Gene expression of the following genes was measured (abbreviation and GenBank Accession shown in parentheses). […]

[2] = tested on: Cannabinoid receptor 1 (CB 1); assay: Real-time PCR gene expression in peripheral tissues: CB1; format: in vivo; conditions: C57bl6j mice, high fat diet, 100 mg/kg/body weight in diet, 5 weeks
Description: as §1, §2, §3, §4, §5

CPT1 = assay: Real-time PCR gene expression in peripheral tissues: CPT1; format: in vivo; conditions: C57bl6j mice, high fat diet, 100 mg/kg/body weight in diet, 5 weeks
Description: as §1, §2, §3, §4, §5

[3] = tested on: overall gene expression pattern; assay: Multivariate statistical analysis of overall gene expression pattern; format: in vivo; conditions: C57bl6j mice, high fat diet, 100 mg/kg/body weight in diet, 5 weeks
Description: as §1, §6, §7

[4] = tested on: Oleoylethanolamide synthase (OEA synthase); assay: Real-time PCR gene expression in peripheral tissues: OEA synthase; format: in vivo; conditions: proximal intestine; C57bl6j mice, high fat diet, 100 mg/kg/body weight in diet, 5 weeks
Description: as §1, §6, §7

[5] = tested on: Glucose 6-phosphatase (G6P); assay: Real-time PCR gene expression in peripheral tissues: G6P; format: in vivo; conditions: liver; C57bl6j mice, high fat diet, 100 mg/kg/body weight in diet, 5 weeks
Description: as §1, §6, §7

[6] = tested on: Phosphoenolpyruvate carboxykinase (PEP CK); assay: Real-time PCR gene expression in peripheral tissues: PepCK; format: in vivo; conditions: liver; C57bl6j mice, high fat diet, 100 mg/kg/body weight in diet, 5 weeks
Description: as §1, §6, §7

[7] = tested on: Sterol regulatory element binding protein-c 1 (SREBP 1c); assay: Real-time PCR gene expression in peripheral tissues: SREBP1c; format: in vivo; conditions: C57bl6j mice, high fat diet, 100 mg/kg/body weight in diet, 5 weeks
Description: as §1, §2, §3, §4, §5

[8] = tested on: G protein coupled receptor 119 (GPR 119); assay: Real-time PCR gene expression in peripheral tissues: GPR119; format: in vivo; conditions: proximal intestine; C57bl6j mice, high fat diet, 100 mg/kg/body weight in diet, 5 weeks
Description: as §1, §6, §7

[9] = cited from earlier work
Leptin = assay: Real-time PCR gene expression in peripheral tissues: leptin; format: in vivo; conditions: C57bl6j mice, high fat diet, 100 mg/kg/body weight in diet, 5 weeks
Description: as §1, §2, §3, §4, §5

[10] = rodents, intraperitoneal administration

T1 sequence (P23204 whole entry): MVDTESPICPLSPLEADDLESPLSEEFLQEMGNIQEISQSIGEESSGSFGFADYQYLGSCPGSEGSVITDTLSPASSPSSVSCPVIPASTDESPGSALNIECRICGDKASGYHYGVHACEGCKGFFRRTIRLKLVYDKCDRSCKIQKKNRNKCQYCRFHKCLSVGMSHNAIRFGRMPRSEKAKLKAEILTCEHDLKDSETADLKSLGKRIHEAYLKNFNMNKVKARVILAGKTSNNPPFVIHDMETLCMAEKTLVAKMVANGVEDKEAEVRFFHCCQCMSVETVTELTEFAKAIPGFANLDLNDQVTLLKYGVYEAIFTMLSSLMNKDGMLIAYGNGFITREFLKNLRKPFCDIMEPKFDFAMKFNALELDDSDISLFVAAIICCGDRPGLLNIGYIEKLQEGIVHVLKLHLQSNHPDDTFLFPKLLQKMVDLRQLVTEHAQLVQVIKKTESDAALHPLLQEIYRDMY

## CCCCCCCC/C=C\CCCCCCCC(=O)NCCO [OEA, N-oleoyl-ethanolamide]
PPAR α
  food intake, wild-type vs PPAR α (−/−) mice: regulates food intake in wild-type mice but not in PPAR α (−/−) mice
[1]; epidydimal adipose tissue
  NAAA at ep, ratio of RNA levels relative to control mice: 1.36
[1]; peritoneal adipose tissue
  NAAA at per, ratio of RNA levels relative to control mice: 1.03
[1]; proximal intestine
  NAAA i, ratio of RNA levels relative to control mice: 1.85
Cholescystokinin (CCK)
  CCK i, ratio of RNA levels relative to control mice: 1.57
[2]; epidydimal adipose tissue
  CB1 at ep, ratio of RNA levels relative to control mice: −1.94
[2]; peritoneal adipose tissue
  CB1 at per, ratio of RNA levels relative to control mice: −5.27
[2]; proximal intestine
  CB1 i, ratio of RNA levels relative to control mice: −1.02
CPT1; liver
  CPT1 l, ratio of RNA levels relative to control mice: 1.74
CPT1; pancreas
  CPT1 p, ratio of RNA levels relative to control mice: 1.35
CPT1; proximal intestine
  CPT1 i, ratio of RNA levels relative to control mice: 2.00
[3]
  overall gene expression pattern (multivariate statistical analysis): significant shift
[4]
  OEA synthase i, ratio of RNA levels relative to control mice: −1.38
[5]
  G6P l, ratio of RNA levels relative to control mice: 1.29
[6]
  PepCK l, ratio of RNA levels relative to control mice: 1.02
[7]; epidydimal adipose tissue
  SREBP1c at ep, ratio of RNA levels relative to control mice: 1.08
[7]; liver
  SREBP1c l, ratio of RNA levels relative to control mice: 1.24
[7]; peritoneal adipose tissue
  SREBP1c at per, ratio of RNA levels relative to control mice: −1.39
[8]
  GPR119 i, ratio of RNA levels relative to control mice: 1.97
[9]; administrated intraperitoneally
  food intake (meal size, first meal delay, meal intervals): reduced food intake
[9]; [10]
  body fat gain: reduced body fat gain
  satiety and lipid utilization: induce satiety and peripheral utilization of lipid substrate
Leptin; epidydimal adipose tissue
  leptin at ep, ratio of RNA levels relative to control mice: 1.22
Leptin; peritoneal adipose tissue
  leptin at per, ratio of RNA levels relative to control mice: 3.44
Leptin; stomach
  leptin s, ratio of RNA levels relative to control mice: 1.41
